We go through one molecule from patent US11878003B2, “Composition comprising organoselenium compound for treatment of skeletal muscle atrophy” (Gwangju Institute of Science and Technology, priority 2021, dated 2024).

Common to all, as to assay type: cell-based, mouse
The subject of one data set is C2C12 myoblasts. The data set can be described thus: MTT assay, myoblast viability. The procedure:
C2C12 mouse skeletal muscle progenitor cells (myoblasts) were grown in a growth medium including Dulbecco's Modified Eagle's Medium (DMEM) supplemented with 10% fetal bovine serum (FBS), 50 units/mL if penicillin, and […] of streptomycin (PenStrep).
Cell proliferation was evaluated through MTT (3-(4,5-dimethylthiazol-2-yl)-2,5-diphenyltetrazolium bromide) assay as described above. Myoblasts were seeded 3 times into 96-well plates at a density of 2×10^3 cells per well. A compound to be tested was added, followed by 48 hours of incubation, the medium was changed to an MTT solution (0.5 mg/mL, final concentration), and the plate was incubated in an incubator at 37° C., 5%, CO2 conditions. After 60 minutes of incubation, 50 μL of DMSO was added. Optical density in each well was measured at 570 nm using a microplate reader (VersaMax, Molecular Devices, USA). For myotube analysis, myoblasts were differentiated for […], the medium was supplemented with the compound of interest, 48 hours of incubation was additionally performed, and the cultures were assayed.
A general note: Tetrazolium dyes change colour on reduction, which living cells bring about.

The test system of data set [1] is C2C12 myotubes. The data set can be described thus: Dexamethasone-induced myotube atrophy, H&E morphology. Conditions: co-treatment with 10 μM dexamethasone, 24 hours. The procedure:
(§1) C2C12 myoblasts were seeded onto 6-well plates in a growth medium (GM). After reaching confluence, the cultures were treated with DM for 72 hours, and myotube atrophy was induced with DM containing 10 μM dexamethasone for 24 hours in the presence or absence of the drug of interest. Myotubes were visualized using hematoxylin and eosin staining according to a previously published protocol, and imaged with an optical microscope (Olympus CKX41, Japan). A myotube distribution was calculated by dividing the number of myotubes in each group by the total number of myotubes per image.
To evaluate myotube formation and atrophy, five microscopic fields of H&E-stained or MitoTracker Red CMX-Ros-stained cultures were randomly captured, and multinuclear myotube formation and diameters were calculated. Myotubes were designated as multinucleated cells containing three or more nuclei, and the diameters of myotubes were calculated using ImageJ 1.48 software (National Institutes of Health, Bethesda, MD, USA).

For data set [2], the system named is Atrogin-1, MuRF-1, FoxO3a expression. The data set can be described thus: qPCR of atrophy genes in dexamethasone-treated myotubes. The following applies: 10 μM dexamethasone 24 hours. As to the method:
as §1
The transcription level of the gene was measured using a StepOnePlus Real Time PCR System (manufactured by Applied Biosystems, UK). cDNA was reverse transcribed from total RNA using an AccuPower RT PreMix (manufactured by Bioneer, USA). Real-time PCR was performed by modifying the manufacturer's instructions as follows.
PCR was performed three times using a total of 20 μL of 2×Power SYBR Green PCR Master Mix containing 200 nM of specific primers and 1 μL of cDNA. 10 minutes of incubation was performed at 95° C. prior to PCR amplification. The amplification consisted of 40 cycles of denaturation (for 15 seconds at 95° C.), annealing (for 1 minute at 60° C.), and extension (for 20 seconds at 72° C.). Extension and fluorescence detection were performed at 72° C. after each cycle. After the final cycle, melting point analysis was performed using continuous fluorescence detection on samples at a temperature in a range of 60° C. to 95° C. Specific cDNA samples were included in each run and used as a reference for comparison between runs. Expression levels of GAPDH were used for normalization and expression levels of all other genes were calculated.

The test system of data set [3] is C2C12 myotubes. The data set can be described thus: SUnSET assay of protein synthesis. As to the method: Surface sensing translation (SUnSET) assay was performed as described above. Briefly, 1 μg/mL puromycin was added to the culture and the harvest was lysed after 10 minutes. For immunoblotting, the myotube extract was treated with anti-puromycin 12D10 antibody (MABE343; Millipore).

Usually IC50 stands for the midpoint of a concentration-inhibition curve. For `O=c1c2ccccc2[se]n1-c1ccccc1` [ebselen], in the data set with C2C12 myoblasts (MTT), the “concentration at which cytotoxicity was not observed” value is no more than 10 µM. In the data set with C2C12 myoblasts (Mus musculus, C2C12, 48 hours, read-out: IC50, MTT assessment), the half-maximal inhibitory concentration (IC50) was found to be 22.4 µM. Moreover, the average myotube diameter entry with C2C12 myotubes [1] is recorded as “did not show a decrease”. Besides, the “Atrogin-1 and FoxO3a expression” value in data set [2] is listed as “inhibited the up-regulation”. Besides, the results for the protein synthesis entry in the data set with C2C12 myotubes [3] (alone or with dexamethasone) and in the data set on C2C12 myotubes [3] (dexamethasone-treated myotubes) were “effective in increasing protein synthesis” and “increased”, respectively.
